# According to patent publication US10233202B2, “Tenofovir monobenzyl ester phosphamide prodrug, preparation method and use thereof” (JIANGSU TASLY DIYI PHARMACEUTICAL CO., LTD., priority 2015, dated 2019):
# Like-named read-outs stand apart in the source and are kept apart here.
# Key:
# [1] = Stability in the human liver S9; type: in vitro ADME; conditions: for CLlint(s9) / half-life at 1 μM / Remaining (T = 60 min): human liver S9, 1 μM
# Description: (§1) The following stability test were carried out according to the prior art, and the data of the stability test shown in the table were the residue percentages after the test compounds were incubated for different period of time under the test condition.
# [2] = Cell viability test in MT-4 cells (CellTiter Glo); type: cell-based; conditions: human
# Description: 9.3. Treatment of the cells in the cell viability test: parallel tests were carried out using the same method as that in 9.2, except that the 96-well plate containing the compounds of different concentrations were replaced with the blank 96-well plate, and CellTiter Glo was used to determine the cell viability to calculate the CC50 value.
# (§2) 9.4. Data analysis and calculation of the inhibition percentage: the activity percentage was calculated using the following formula: Activity (%) =(Raw datacpd−AverageVC)/(AverageCC−AverageVC)*100Cell Viability (%)=Raw datacpd/AverageCC*100
# HIV-1 IIIB = assay: In vitro anti-HIV activity test in MT-4 cells infected with HIV-1 IIIB (CellTiter Glo); type: cell-based; conditions: Human immunodeficiency virus 1, IIIB, MT4, 120 h
# Description: 9.1. Dilution and concentrations of the compounds and the reference compound (CN01813161GS-7340, TDF) were the same as those in example 1.
# 9.2. In vitro anti-HIV activity test: after MT-4 cells were infected with 24 TCID50HIV-1 IIIB/1×10^5 cells (2.4 TCID50/well) at 37° C. for 1 hour, they were plated in the 96-well plate containing the compounds of different concentrations ([…]) and cultured at 37° C. in 5% CO2 for 5 days. CellTiter Glo was used to determine the activity to calculate the EC50 value.
# as §2
# [3] = Stability in the simulated gastric fluid; type: in vitro ADME
# Description: as §1
# HBV = assay: Cell based anti-HBV activity test, HBV DNA in HepG2.2.15 cell supernatant by qPCR
# Description: (§3) 8.1. Dilution of the compounds: the initial concentration of each compound in the in vitro anti-HBV activity test was 1 μM, with 3-fold serial dilution to 8 concentrations; the initial concentration of each compound in the cytotoxicity test was 100 μM, with 3-fold serial dilution to 8 concentrations; DMSO was used for the dilution of the compound mother liquor. The initial concentrations of the reference compound TDF for the anti-HBV activity test in vitro and the cytotoxicity test were all set at 0.2 μM, with 3-fold serial dilution to 8 concentrations.
# 8.2. Anti-HBV activity test in vitro: the HepG2.2.15 cells were plated in the 96-well plate (4×10^4 cells/well), and cultured overnight at 37° C. in 5% CO2. On second day, fresh culture solutions containing compounds of different concentrations were added to the culture wells. See Table 2 for the compound distribution. On 5th day, the used culture solutions in the culture wells were sucked and discarded, and fresh culture solutions containing compounds of different concentrations were added. On 8th day, the supernatant in the culture wells was collected for the extraction of HBV DNA in the supernatant. qPCR test was used to detect the concentration of HBV DNA content in the HepG2.2.15 supernatant.
# 8.4. Data analysis and calculation of the inhibition percentage and relative cell viability: The inhibition percentage was calculated using the following formula: % Inh.=[(HBV quantity of DMSO control−HBV quantity of sample)/HBV quantity of DMSO control]×100%
# 9.1 Drugs: the dilution method and concentrations of compound 3, the reference compound (CN201380030061.6, and the compound shown in claim 36 (abbreviation: compound 7), and the isomer thereof) were the same as those in example 1.
# (§4) 9.2 Test method: the test was carried out according to the procedure in example 1.
# in vitro = type: cell-based; conditions: human, HepG2.2.15 cells
# Description: The concentration of HBV DNA in the HepG2.2.15 cell supernatant was detected through the real-time fluorescence quantitative PCR (qPCR) method to determine the anti-HBV activity of the compound in the HepG2.2.15 cells, and the effect of the testing compounds to the HepG2.2.15 cell activity was detected through Cell-titer Blue.
# as §3
# 8.3. Treatment of the cells in the cell viability test: the HepG2.2.15 cells were plated in the 96-well plate (4×10^4 cells/well), and cultured overnight at 37° C. in 5% CO2. On 2nd day, fresh culture solutions containing compounds of different concentrations were added to the culture wells. See Table 3 for the compound distribution. On 5th day, the used culture solutions in the culture wells were sucked and discarded, and fresh culture solutions containing compounds of different concentrations were added. On 8th day, Cell-titer Blue agent was added to each well, and the microplate reader was used to detect the fluorescence value of each well.
# The cell viability percentage was calculated using the following formula: % cell viability=(fluorescence of sample−fluorescence of medium control)/(fluorescence of DMSO control−fluorescence of medium control)[…] 100%
# as §4
# [4] = Stability in the simulated intestinal fluid; type: in vitro ADME; conditions: 10 μM
# Description: as §1
# [5] = Stability in the human blood; type: in vitro ADME; conditions: 2 μM
# Description: as §1
# hERG K-channel = hERG K-channel (Homo sapiens, UniProt Q12809); assay: hERG manual whole-cell patch clamp in CHO cells (cardiotoxicity study); conditions: IC50, hERG current, room temperature
# Chain of hERG K-channel (Q12809 whole entry): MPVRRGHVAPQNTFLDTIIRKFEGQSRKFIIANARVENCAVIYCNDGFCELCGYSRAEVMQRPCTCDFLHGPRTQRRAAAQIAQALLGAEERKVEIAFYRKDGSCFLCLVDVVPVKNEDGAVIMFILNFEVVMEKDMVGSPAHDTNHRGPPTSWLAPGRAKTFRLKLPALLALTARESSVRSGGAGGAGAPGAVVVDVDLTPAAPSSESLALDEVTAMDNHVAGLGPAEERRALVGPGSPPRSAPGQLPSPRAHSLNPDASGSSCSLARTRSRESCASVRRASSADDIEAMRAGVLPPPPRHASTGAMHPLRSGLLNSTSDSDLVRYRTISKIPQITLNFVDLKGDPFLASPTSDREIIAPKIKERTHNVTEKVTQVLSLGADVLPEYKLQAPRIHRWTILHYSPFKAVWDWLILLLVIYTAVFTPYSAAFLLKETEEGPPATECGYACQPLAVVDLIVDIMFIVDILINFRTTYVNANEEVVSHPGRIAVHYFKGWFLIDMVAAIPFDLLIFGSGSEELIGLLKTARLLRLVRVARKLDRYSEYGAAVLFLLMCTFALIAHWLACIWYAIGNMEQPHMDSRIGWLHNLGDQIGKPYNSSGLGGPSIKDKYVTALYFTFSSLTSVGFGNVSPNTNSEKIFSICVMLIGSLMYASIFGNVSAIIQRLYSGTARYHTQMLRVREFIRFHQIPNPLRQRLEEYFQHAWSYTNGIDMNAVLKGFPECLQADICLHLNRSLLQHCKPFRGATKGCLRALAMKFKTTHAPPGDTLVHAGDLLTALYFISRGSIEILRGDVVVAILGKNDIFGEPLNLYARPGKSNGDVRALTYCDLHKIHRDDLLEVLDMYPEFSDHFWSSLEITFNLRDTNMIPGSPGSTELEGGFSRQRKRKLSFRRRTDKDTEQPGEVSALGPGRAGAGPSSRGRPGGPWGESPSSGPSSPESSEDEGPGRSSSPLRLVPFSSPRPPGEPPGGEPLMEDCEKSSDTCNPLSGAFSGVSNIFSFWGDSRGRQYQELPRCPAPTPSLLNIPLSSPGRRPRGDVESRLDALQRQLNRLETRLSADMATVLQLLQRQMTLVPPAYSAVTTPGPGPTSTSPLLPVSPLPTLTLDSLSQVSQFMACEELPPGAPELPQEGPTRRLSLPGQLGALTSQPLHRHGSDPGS
# Description: The CHO cells obtained from AVivaBiosciences that could stably express the hERG K-channel were used in the test, and the cells were incubated at 37° C. in 5% CO2 and under constant humidity.
# The final concentration of DMSO in the extracellular fluid was not higher than 0.30%.
# The whole-cell patch clamp technique was used on the Multiclamp patch-clamp amplifier to test the compound at room temperature, the output signal was digitalized using the DIgiDAta 1440 A/D-D/A plate, and the Pclamp10 software was used for the control of the recording. The minimum sealing resistance was set at 500 MOh/ms, and the minimum specific hERG current was set at 0.4 nA for quality control.
# Clampfit (V10.2, Molecular Devices), Excel 2003 and GraphPad Prism 5.0 were used for the data analysis. The calculation formula of the current: I/Icontrol=Bottom+(Top−Bottom)/(1+10^((LogIC50−Log C)*Hillslope
# in vivo = assay: in vivo; set-up: species or system ICR mice; conditions: mouse, 50 mg/kg
# Description: 12 ICR mice (male, body weight 30±5 g, purchased from the Vital River animal center) were randomly divided into 4 groups, 3 for each group, fasted for 12 h before drug administration, with freely drinking during the fasting. […] The dose of the Tenofovir prodrug was 50 mg/kg, and the administration quantity was 10 mL/kg. The sample collection protocols: after administration by gastric gavage, each 0.5 mL of blood was taken from the orbit at 15 min, 30 min, 1 h, and 3 h; the mice were sacrificed, and the liver tissues were taken, washed cleanly, and weighed; normal saline was added to the liver with a proportion of 1:1, homogenized, and stored in the refrigerator at −40° C. for test. Treatment method for the plasma samples: 100 μL of the mouse plasma was taken and placed in a 1.5 mL plastic EP tube, 100 μL solution of internal standard (200 ng/ml theophylline) solution was added, 600 μL acetonitrile was added, vortex shaking for 2 min, centrifuged for 3 min (12500 rpm), the supernatant was taken, purged with nitrogen to dryness, and dissolved again with 100 μL of mobile phase (water:methanol=95:5), and the injection volume was 10 μL. Treatment method for the tissue samples: 200 μL of the mouse tissue samples were taken and placed in a 1.5 mL plastic EP tube, 100 μL solution of internal standard (200 ng/ml theophylline) solution was added, 600 μL acetonitrile was added, vortex shaking for 2 min, centrifuged for 3 min (12500 rpm), the supernatant was taken, purged with nitrogen to dryness, and dissolved again with 100 μL of mobile phase (water:methanol=95:5), and the injection volume was 20μL.
# [6] = Cell-titer Blue on 8th day, Table 3
# [7] = HepG2.2.15 cells, HBV DNA in supernatant on 8th day, Table 3, read-out: EC50
# [8] = Hepatitis B virus, HepG2.2.15, HepG2.2.15 cells, HBV DNA in supernatant on 8th day, Table 3, read-out: EC50
structure (smiles),measurement,setting,value
CCOc1ccc2ccc(=O)oc2c1 [7-Ethoxycumarin],CLlint(s9),[1],8.4 µL/min/mg
same,half-life at 1 μM,[1],82.2 min
same,Remaining (T = 60 min),[1],60%
same,CLlint(s9),[1]; scaled per kg,0.0297 mL/min/kg
CC(C)OC(=O)[C@H](C)N[P@](=O)(CO[C@H](C)Cn1cnc2c(N)ncnc21)Oc1ccccc1 [GS-7340],CC50 at 5 days,[2],13.3 µM
same,EC50,HIV-1 IIIB,0.0143 µM
same,% 0 min (residue percentage),[3]; 10 μM,100%
same,% 60 min (residue percentage),[3]; 10 μM,95.40%
same,% 120 min (residue percentage),[3]; 10 μM,66.36%
same,% 360 min (residue percentage),[3]; 10 μM,23.41%
same,% 1440 min (residue percentage),[3]; 10 μM,0.19%
same,EC50,"HBV; Hepatitis B virus, HepG2.2.15",0.0178 µM
same,CC50 at 6 days,"in vitro; comparative test, Table 4",> 100 µM
same,% 0 min (residue percentage),[4],100%
same,% 60 min (residue percentage),[4],30.09%
same,% 120 min (residue percentage),[4],6.22%
same,% 360 min (residue percentage),[4],0.06%
same,% 1440 min (residue percentage),[4],0.00%
same,% 0 min (residue percentage),[5],100%
same,% 10 min (residue percentage),[5],93.2%
same,% 30 min (residue percentage),[5],91.0%
same,% 60 min (residue percentage),[5],90.3%
same,% 120 min (residue percentage),[5],90.0%
same,IC50,hERG K-channel,> 10 µM
same,CLlint(s9),[1],211.0 µL/min/mg
same,half-life at 1 μM,[1],3.3 min
same,Remaining (T = 60 min),[1],4%
same,CLlint(s9),[1]; scaled per kg,0.7427 mL/min/kg
CC1CC(OC(=O)C(O)c2ccccc2)CC(C)(C)N1C (centres unmarked) [Eucatropine],% 0 min (residue percentage),[5],100%
same,% 10 min (residue percentage),[5],54.4%
same,% 30 min (residue percentage),[5],37.0%
same,% 60 min (residue percentage),[5],24.4%
same,% 120 min (residue percentage),[5],10.2%
"C[C@H](Cn1cnc2c(N)ncnc21)OC[P@@](=O)(NCC(=O)OCc1ccccc1)OCc1ccccc1 (single isomer, unassigned) [Compound 5b]",CC50,in vitro; [6],> 100 µM
"C[C@H](Cn1cnc2c(N)ncnc21)OC[P@](=O)(NCC(=O)OCc1ccccc1)OCc1ccccc1 (single isomer, unassigned) [Compound 5a]",EC50,HBV; [7],0.214 µM
same,EC50,HBV; [8],0.2 to 1 µM
same,CC50,in vitro; [6],> 100 µM
CC(C)OC(=O)[C@H](C)NP(=O)(CO[C@H](C)Cn1cnc2c(N)ncnc21)OCc1ccccc1 (some centres unmarked) [Compound 3],selectivity ratio at 3 h,"in vivo; male, ICR",3.61
same,concentration at 3 h,"in vivo; male, ICR, Cliver tissue",375 nM
same,concentration at 3 h,"in vivo; male, ICR, Cplasma",104 nM
COC(=O)CN[P@@](=O)(CO[C@H](C)Cn1cnc2c(N)ncnc21)OCc1ccccc1 [Compound 2a],CC50,in vitro; [6],> 100 µM
COC(=O)CN[P@](=O)(CO[C@H](C)Cn1cnc2c(N)ncnc21)OCc1ccccc1 [Compound 2b],EC50,HBV; [8],> 1 µM
same,CC50,in vitro; [6],> 100 µM
COc1ccc2[nH]c([S+]([O-])Cc3ncc(C)c(OC)c3C)nc2c1 (centres unmarked) [Omeprazole],% 0 min (residue percentage),[3]; 20 μM,100%
same,% 60 min (residue percentage),[3]; 20 μM,24.34%
same,% 120 min (residue percentage),[3]; 20 μM,9.41%
same,% 360 min (residue percentage),[3]; 20 μM,1.58%
same,% 1440 min (residue percentage),[3]; 20 μM,0.31%
O=C(O)CCCc1ccc(N(CCCl)CCCl)cc1 [Chlorambucil],% 0 min (residue percentage),[4],100%
same,% 60 min (residue percentage),[4],29.36%
same,% 120 min (residue percentage),[4],3.11%
same,% 360 min (residue percentage),[4],0.00%
same,% 1440 min (residue percentage),[4],0.00%
"CC(C)OC(=O)CN[P@@](=O)(CO[C@H](C)Cn1cnc2c(N)ncnc21)OCc1ccccc1 (single isomer, unassigned) [Compound 1a]",EC50,HBV; [8],> 1 µM
same,CC50,in vitro; [6],> 100 µM
"CC(C)OC(=O)CN[P@](=O)(CO[C@H](C)Cn1cnc2c(N)ncnc21)OCc1ccccc1 (single isomer, unassigned) [Compound 1b]",EC50,HBV; [7],0.29 µM
same,EC50,HBV; [8],0.2 to 1 µM
same,CC50,in vitro; [6],> 100 µM
Cc1ccccc1CO[P@](=O)(CO[C@H](C)Cn1cnc2c(N)ncnc21)N[C@@H](C)C(=O)OC(C)C [Compound 7a],EC50,"HBV; Hepatitis B virus, HepG2.2.15, HepG2.2.15 cells, comparative test, Table 4, read-out: EC50",> 1 µM
same,CC50,"in vitro; comparative test, Table 4",> 100 µM
"C[C@H](Cn1cnc2c(N)ncnc21)OCP(=O)(O)O [TFV, Tenofovir]",Cliver tissue,in vivo,67.251 nmol/mL
same,Cplasma,in vivo,0.075 nmol/mL
same,Liver tissue selectivity (Cliver tissue/Cplasma),in vivo,896
O=c1ccc2ccc(O)cc2o1 [7-Hydroxycoumarin],Remaining (T = 60 min),[1],4%
same,half-life,"[1]; human, s9",6.6 min
